Laboratory results: publication PMC1238745, “A Surface Groove Essential for Viral Bcl-2 Function During Chronic Infection In Vivo” (PLoS Pathogens, 2005)
Ends that are not written are not given here.

Legend:
KSHV v-Bcl-2 = conditions: ref [9]; cited from earlier work
From the text: Each of these proteins interacts with BH3 peptides from Bak and Bax, but the viral proteins differ from the host proteins in their inability to bind the Bad BH3 peptide. […] In this property, the γHV68 and KSHV v-Bcl-2 proteins resemble cellular Mcl-1, which also fails to bind Bad BH3 peptide and is important for development of B cells, one of the cell types in which γHV68 establishes latency. One possible explanation for the lack of binding to the Bad BH3 peptide is that v-Bcl-2 binding to Bad is detrimental to the virus. Bad was recently found to be essential for assembly of a holoenzyme tha ...

[1] = target: T1, γHV68 v-Bcl-2 (wild-type) (Murid herpesvirus 4, UniProt P89884); assay: NMR titration of BH3 peptides with wild-type γHV68 v-Bcl-2; format: binding, murine γ-herpesvirus 68; conditions: 303 K; for binding over the concentration range of the titration: pH 7.8, peptide up to 320 μM
T1 construct: we expressed amino acids 1–137 of the v-Bcl-2, removing the carboxy-terminal hydrophobic domain; made in house; host or cells: E. coli BL21(DE3)
Method: (§1) Wild-type and SGR/AAA v-Bcl-2 used in NMR studies were expressed in E. coli BL21(DE3) strain grown on M9 media. For wild-type v-Bcl-2, uniformly ^15N-labeled, uniformly ^15N,^13C-labeled, and uniformly ^15N,^13C-labeled, 75% ^2H samples were prepared with media containing either ^15NH4Cl, ^15NH4Cl plus [U-^13C]glucose or ^15NH4Cl, [U-^13C]glucose, and 75% ^2H2O, respectively. For SGR/AAA v-Bcl-2, a ^15N-labeled sample was prepared with media containing ^15NH4Cl as the sole nitrogen source. Soluble protein was purified by Ni^2+-affinity chromatography. NMR samples contained 0.5–1.0 mM protein in either 90% H2O with 10% ^2H2O or 100% ^2H2O, 20 mM ^2H-TRIS (pH 7.8), and 5 mM ^2H-dithiothreitol.
(§2) All NMR experiments were acquired at 303 K on a Bruker DRX500, DRX600 or DRX800 NMR spectrometer. […] Side-chain ^1H and ^13C NMR signals were assigned from HCCH-TOCSY experiments. Stereospecific assignments of valine and leucine methyl groups were obtained from an analysis of the ^13C-^13C coupling patterns observed for biosynthetically directed, fractionally ^13C-labeled γHV68 v-Bcl-2 [87]. NOE distance restraints were obtained from three-dimensional ^15N- and ^13C-edited NOESY spectra acquired with a mixing time of 80 ms. Slowly exchanging amide protons were identified in an ^15N-HSQC spectrum recorded immediately after exchanging the protein into a buffer prepared with ^2H2O.
(§3) Binding of the Bak 16-mer ([…]), the Bax 16-mer ([…]), the Bad 25-mer ([…]), and a D83A mutant Bak 16-mer ([…]) to wild-type v-Bcl-2, and binding of the Bax 16-mer to SGR/AAA v-Bcl-2 was assessed by NMR titration. Each peptide was titrated from a concentrated stock solution into a sample of ^13C-labeled protein, and binding was monitored from changes in a ^13C methyl-HSQC spectrum. For wild-type v-Bcl-2, ^13C-HSQC spectra were recorded on a uniformly ^13C,^15N-labeled protein sample (120 μM) in the presence of increasing amounts of peptide (40, 80, 160, 240, and 320 μM). For SGR/AAA v-Bcl-2, ^15N-HSQC spectra were recorded on a sample of uniformly ^15N-labeled protein in the presence of increasing amounts of peptide.

Mcl-1 = conditions: ref [70],[71]; cited from earlier work
From the text: In this property, the γHV68 and KSHV v-Bcl-2 proteins resemble cellular Mcl-1, which also fails to bind Bad BH3 peptide and is important for development of B cells, one of the cell types in which γHV68 establishes latency. One possible explanation for the lack of binding to the Bad BH3 peptide is that v-Bcl-2 binding to Bad is detrimental to the virus. Bad was recently found to be essential for assembly of a holoenzyme tha ...

Bcl-2 and Bcl-xL = conditions: Bad BH3 peptide; ref [9]; read-out: affinity; cited from earlier work
[2] = target: T2, γHV68 v-Bcl-2 (wild-type) (Murid herpesvirus 4, UniProt P89884); assay: NMR titration of BH3 peptides with wild-type γHV68 v-Bcl-2; format: binding, murine γ-herpesvirus 68; conditions: changes in 13C methyl-HSQC spectrum, 120 μM 13C,15N-labeled protein, peptide 40, 80, 160, 240, and 320 μM, 20 mM 2H-TRIS pH 7.8, 5 mM 2H-dithiothreitol, 303 K
T2 construct: we expressed amino acids 1–137 of the v-Bcl-2, removing the carboxy-terminal hydrophobic domain; made in house; host or cells: E. coli BL21(DE3)
T2 sequence (P89884 whole entry, looked up): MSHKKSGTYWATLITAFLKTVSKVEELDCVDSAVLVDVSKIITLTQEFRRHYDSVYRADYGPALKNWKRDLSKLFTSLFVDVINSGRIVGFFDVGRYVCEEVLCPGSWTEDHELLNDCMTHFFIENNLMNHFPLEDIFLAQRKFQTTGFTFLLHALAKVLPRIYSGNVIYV
Method: as §1, §2, §3

Bcl-xL = conditions: vs Bak peptide; no reference in the sentence, preceding paragraph cites ref [53]; cited from earlier work

Sequence | binding to KSHV v-Bcl-2 (KSHV v-Bcl-2) | exchange with γHV68 v-Bcl-2 on the NMR timescale ([1]; pH 7.8) | binding of Bad BH3 peptide to Mcl-1 (Mcl-1) | Kd (Bcl-2 and Bcl-xL) | Kd [2] | binding over the concentration range of the titration [1] | fold reduction of affinity for Bcl-xL by D83A mutation (Bcl-xL) | Kd ([1]; changes in 13C methyl-HSQC spectrum, 120 μM 13C,15N-labeled protein, peptide 40, 80, 160, 240, and 320 μM, 20 mM 2H-TRIS pH 7.8, 5 mM 2H-dithiothreitol)
KKLSECLKRIGDELDS [Bax peptide] | interacts | slow exchange |  |  |  |  |  | 
NLWAAQRYGRELRRMSDEFVSFKK [Bad BH3 peptide, Bad 25-mer ([…]), BH3 peptide from proapoptotic Bad] | much lower affinity than is observed for Bcl-2 or Bcl-xL |  | fails to bind | 0.0006 to 0.015 µM | > 300 µM | bound weakly |  | 
GQVGRQLAIIGADINR [D83A mutant Bak peptide] |  |  |  |  |  | no binding | more than 120 fold | > 300 µM
